Results taken from ChEMBL document CHEMBL3425421, “Chromone derivatives from a sponge-derived strain of the fungus Corynespora cassiicola” (J Nat Prod, 2015).
Calls of active or inactive are those of the source.

Assays:
HL-60 = assay: Cytotoxicity against human HL60 cells by MTT assay; assay type: functional, cell-based
A549 = assay: Cytotoxicity against human A549 cells by MTT assay; assay type: functional, cell-based
HeLa = assay: Cytotoxicity against human HeLa cells by MTT assay; assay type: functional, cell-based
K562 = assay: Cytotoxicity against human K562 cells by MTT assay; assay type: functional, cell-based
Bacillus cereus = assay: Antibacterial activity against Bacillus cereus assessed as absence of growth after 18 hrs by conventional broth dilution assay; assay type: functional, organism-based
Bacillus subtilis = assay: Antibacterial activity against Bacillus subtilis assessed as absence of growth after 18 hrs by conventional broth dilution assay; assay type: functional, organism-based
[1] = test system: Tetragenococcus halophilus; assay: Antibacterial activity against Tetragenococcus halophilus assessed as absence of growth after 18 hrs by conventional broth dilution assay; assay type: functional
Staphylococcus = assay: Antibacterial activity against Staphylococcus albus assessed as absence of growth after 18 hrs by conventional broth dilution assay; assay type: functional, organism-based
Staphylococcus aureus = assay: Antibacterial activity against Staphylococcus aureus assessed as absence of growth after 18 hrs by conventional broth dilution assay; assay type: functional, organism-based
Pseudomonas putida = assay: Antibacterial activity against Pseudomonas putida assessed as absence of growth after 18 hrs by conventional broth dilution assay; assay type: functional, organism-based
Vibrio parahaemolyticus = assay: Antibacterial activity against Vibrio parahaemolyticus assessed as absence of growth after 18 hrs by conventional broth dilution assay; assay type: functional, organism-based
[2] = target: Acetylcholinesterase (Electrophorus electricus) (UniProt O42275); assay: Inhibition of electric eel AChE using acetylthiocholine iodide as substrate by Ellman's method
[3] = target: T1, DNA topoisomerase (Bos taurus) (UniProt A0JN73); assay: Inhibition of calf thymus Topoisomerase 1 relaxation activity by plasmid relaxation assay
T1 sequence (whole entry): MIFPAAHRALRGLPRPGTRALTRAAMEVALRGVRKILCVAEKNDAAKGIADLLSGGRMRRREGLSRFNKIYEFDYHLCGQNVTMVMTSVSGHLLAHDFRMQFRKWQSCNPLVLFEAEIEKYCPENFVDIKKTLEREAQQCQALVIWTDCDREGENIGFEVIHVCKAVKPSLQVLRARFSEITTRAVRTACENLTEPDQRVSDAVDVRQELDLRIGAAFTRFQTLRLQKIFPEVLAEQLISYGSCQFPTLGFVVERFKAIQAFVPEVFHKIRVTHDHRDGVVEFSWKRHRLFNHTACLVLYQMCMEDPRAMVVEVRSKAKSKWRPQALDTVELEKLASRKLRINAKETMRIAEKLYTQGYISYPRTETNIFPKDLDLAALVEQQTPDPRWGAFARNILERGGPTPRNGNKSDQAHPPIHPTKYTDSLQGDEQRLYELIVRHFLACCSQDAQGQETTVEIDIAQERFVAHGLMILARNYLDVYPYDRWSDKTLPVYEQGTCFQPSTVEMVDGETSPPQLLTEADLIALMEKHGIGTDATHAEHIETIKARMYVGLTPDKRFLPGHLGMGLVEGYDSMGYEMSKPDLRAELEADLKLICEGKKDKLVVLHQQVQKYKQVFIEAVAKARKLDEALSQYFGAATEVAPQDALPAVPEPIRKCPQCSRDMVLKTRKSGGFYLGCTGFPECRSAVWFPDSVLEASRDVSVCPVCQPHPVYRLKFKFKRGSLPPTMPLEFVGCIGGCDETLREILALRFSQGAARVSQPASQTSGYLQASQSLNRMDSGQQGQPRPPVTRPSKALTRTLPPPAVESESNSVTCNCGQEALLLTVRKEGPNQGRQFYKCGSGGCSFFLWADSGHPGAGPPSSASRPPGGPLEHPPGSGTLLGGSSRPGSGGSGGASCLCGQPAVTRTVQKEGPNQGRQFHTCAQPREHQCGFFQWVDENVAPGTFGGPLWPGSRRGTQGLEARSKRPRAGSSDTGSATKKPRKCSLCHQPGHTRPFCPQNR

Amphibalanus amphitrite = assay: Antifouling activity against Balanus amphitrite Darwin; assay type: functional, organism-based

Measured: inhibition

Sequence of Acetylcholinesterase (Electrophorus electricus) (O42275 24-633 limits assumed): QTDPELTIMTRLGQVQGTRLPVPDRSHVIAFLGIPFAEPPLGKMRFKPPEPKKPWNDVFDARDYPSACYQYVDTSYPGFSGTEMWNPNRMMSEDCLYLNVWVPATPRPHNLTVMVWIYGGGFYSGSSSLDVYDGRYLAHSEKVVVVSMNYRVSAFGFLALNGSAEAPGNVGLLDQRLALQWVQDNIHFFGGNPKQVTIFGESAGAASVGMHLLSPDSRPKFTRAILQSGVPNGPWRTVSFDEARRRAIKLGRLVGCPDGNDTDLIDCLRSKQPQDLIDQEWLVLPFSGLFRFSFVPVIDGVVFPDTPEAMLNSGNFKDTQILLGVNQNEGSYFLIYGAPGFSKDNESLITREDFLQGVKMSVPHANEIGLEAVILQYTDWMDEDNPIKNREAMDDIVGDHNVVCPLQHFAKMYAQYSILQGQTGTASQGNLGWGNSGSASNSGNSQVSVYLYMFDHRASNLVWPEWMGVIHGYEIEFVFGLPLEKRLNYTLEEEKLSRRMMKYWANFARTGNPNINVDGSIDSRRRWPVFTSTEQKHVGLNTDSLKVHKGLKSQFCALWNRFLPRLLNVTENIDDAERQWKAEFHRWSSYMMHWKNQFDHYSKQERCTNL

CCOC(=O)Cc1cc(O)cc2c1C(=O)C[C@H](C[C@H](C)O)O2
inactive: all assays above

CC(=O)C[C@H]1CC(=O)c2c(CC(=O)O)cc(O)cc2O1
inactive: all assays above

COc1c(O)cc(CC(=O)O)c2c1O[C@H](C[C@H](C)O)CC2=O
inactive: all assays above

Cc1cc(=O)c2c(CC(=O)OCC(C)C)cc(O)cc2o1
inactive: all assays above

C[C@H](O)C[C@@H]1CC(=O)c2c(CC(=O)O)cc(O)cc2O1
inactive: all assays above

C[C@H](O)C[C@H]1CC(=O)c2c(CC(=O)O)cc(O)cc2O1
inactive: all assays above

CC(C)COC(=O)Cc1cc(O)cc2c1C(=O)C[C@@H](C[C@H](C)O)O2
inactive: all assays above

CCOC(=O)Cc1cc(O)cc2oc(/C=C/C[C@H](C)O)cc(=O)c12
inactive: all assays above

CCOC(=O)Cc1cc(O)cc2c1C(=O)C[C@@H](C[C@H](C)O)O2
inactive: all assays above

COc1c(O)cc(CC(=O)O)c2c1O[C@@H](C[C@H](C)O)CC2=O
inactive: all assays above

CC(C)COC(=O)Cc1cc(O)cc2c1C(=O)C[C@H](C[C@H](C)O)O2
inactive: all assays above

CCOC(=O)Cc1cc(O)cc2oc(C)cc(=O)c12
inactive: all assays above
